Test results as given in the CheMixHub viscosity set.
Several values for one entry are separate records, joined by “and”; a condition that tells them apart may be missing. Equal values may be shown once.

Experiment: xn = mol fraction of the nth substance listed

CC1COC(=O)O1 (centres undefined) + CCCCCCO
Settings | viscosity [mPa·s]
298 K, 101.3 kPa, x1 = 0.0204 | 4.601
298 K, 101.3 kPa, x1 = 0.0408 | 4.607
298 K, 101.3 kPa, x1 = 0.0606 | 4.612
298 K, 101.3 kPa, x1 = 0.0808 | 4.612
298 K, 101.3 kPa, x1 = 0.1003 | 4.609
298 K, 101.3 kPa, x1 = 0.2005 | 4.548
298 K, 101.3 kPa, x1 = 0.3005 | 4.406
298 K, 101.3 kPa, x1 = 0.4004 | 4.191
298 K, 101.3 kPa, x1 = 0.5001 | 3.912
298 K, 101.3 kPa, x1 = 0.6002 | 3.586
298 K, 101.3 kPa, x1 = 0.7001 | 3.228
298 K, 101.3 kPa, x1 = 0.8001 | 2.854
298 K, 101.3 kPa, x1 = 0.9 | 2.536
298.15 K, 101 kPa, x1 = 0.0254 | 4.523
298.15 K, 101 kPa, x1 = 0.0901 | 4.346
298.15 K, 101 kPa, x1 = 0.1722 | 4.13
298.15 K, 101 kPa, x1 = 0.2303 | 3.984
298.15 K, 101 kPa, x1 = 0.3087 | 3.796
298.15 K, 101 kPa, x1 = 0.3846 | 3.621
298.15 K, 101 kPa, x1 = 0.4521 | 3.473
298.15 K, 101 kPa, x1 = 0.5332 | 3.303
298.15 K, 101 kPa, x1 = 0.6124 | 3.145
298.15 K, 101 kPa, x1 = 0.7005 | 2.978
298.15 K, 101 kPa, x1 = 0.7883 | 2.821
298.15 K, 101 kPa, x1 = 0.8455 | 2.722
298.15 K, 101 kPa, x1 = 0.9112 | 2.614
298.15 K, 101 kPa, x1 = 0.977 | 2.509

COc1ccccc1 + CCCCCCCO
viscosity [mPa·s]
Settings | 303 K | 303.15 K | 313 K | 313.15 K | 323 K | 323.15 K
100 kPa, x1 = 0.126 | 3.393 | – | 2.351 | – | 1.972 | –
100 kPa, x1 = 0.245 | 2.343 | – | 1.746 | – | 1.46 | –
100 kPa, x1 = 0.357 | 1.759 | – | 1.349 | – | 1.173 | –
100 kPa, x1 = 0.464 | 1.364 | – | 1.124 | – | 0.9642 | –
100 kPa, x1 = 0.565 | 1.172 | – | 0.9672 | – | 0.849 | –
100 kPa, x1 = 0.66 | 1.068 | – | 0.8719 | – | 0.7334 | –
100 kPa, x1 = 0.752 | 0.9884 | – | 0.8171 | – | 0.684 | –
100 kPa, x1 = 0.838 | 0.9459 | – | 0.7783 | – | 0.6326 | –
100 kPa, x1 = 0.921 | 0.9418 | – | 0.7546 | – | 0.6041 | –
101.33 kPa, x1 = 0.1002 | – | 3.922 | – | 2.94 | – | 2.245
101.33 kPa, x1 = 0.1999 | – | 3.023 | – | 2.359 | – | 1.812
101.33 kPa, x1 = 0.3 | – | 2.457 | – | 1.932 | – | 1.554
101.33 kPa, x1 = 0.4003 | – | 1.996 | – | 1.611 | – | 1.292
101.33 kPa, x1 = 0.5 | – | 1.701 | – | 1.373 | – | 1.161
101.33 kPa, x1 = 0.6 | – | 1.448 | – | 1.212 | – | 0.998
101.33 kPa, x1 = 0.7002 | – | 1.213 | – | 1.01 | – | 0.864
101.33 kPa, x1 = 0.8002 | – | 1.072 | – | 0.892 | – | 0.768
101.33 kPa, x1 = 0.9001 | – | 0.969 | – | 0.824 | – | 0.714

CC(C)=O + OCCO
293.15 K, 101.33 kPa
Settings | viscosity [mPa·s]
x2 = 0.1258 | 0.439
x2 = 0.2405 | 0.625
x2 = 0.2517 | 0.651
x2 = 0.3451 | 0.912
x2 = 0.3891 | 1.086
x2 = 0.5257 | 1.91
x2 = 0.6291 | 3.034
x2 = 0.6515 | 3.393
x2 = 0.7734 | 6.123
x2 = 0.8254 | 7.897
x2 = 0.8715 | 9.97
x2 = 0.921 | 13.18

c1ccc2ccccc2c1 + CO
298.15 K, 101 kPa
Settings | viscosity
x1 = 0.006 | 0.5509 mPa·s
x1 = 0.01 | 0.5564 mPa·s and 0.5619 mPa·s
x1 = 0.03 | 0.5893 mPa·s

CC(=O)Oc1ccccc1C(=O)O + CCCO
viscosity [mPa·s], 101 kPa
Settings | x1 = 0.00057 | x1 = 0.000763 | x1 = 0.000955 | x1 = 0.00115 | x1 = 0.00134 | x1 = 0.00153 | x1 = 0.00191
293.15 K | 2.257 | 2.26 | 2.261 | 2.262 | 2.265 | 2.266 | 2.27
298.15 K | 2.207 | 2.209 | 2.21 | 2.211 | 2.213 | 2.215 | 2.217
303.15 K | 1.718 | 1.719 | 1.719 | 1.721 | 1.722 | 1.723 | 1.726
308.15 K | 1.622 | 1.623 | 1.624 | 1.625 | 1.626 | 1.627 | 1.628
310.15 K | 1.458 | 1.459 | 1.459 | 1.46 | 1.46 | 1.461 | 1.461
313.15 K | 1.397 | 1.398 | 1.399 | 1.399 | 1.399 | 1.4 | 1.401

COc1ccccc1 + ClCCCl
viscosity [mPa·s]
Settings | 298.15 K | 303.15 K | 308.15 K | 313.15 K
101 kPa, x1 = 0.0971 | 0.8095 | 0.7615 | 0.7135 | 0.6712
101 kPa, x1 = 0.1961 | 0.8125 | 0.7644 | 0.719 | 0.6736
101 kPa, x1 = 0.2958 | 0.8228 | 0.7712 | 0.7246 | 0.6785
101 kPa, x1 = 0.3963 | 0.8354 | 0.7823 | 0.7333 | 0.6881
101 kPa, x1 = 0.4918 | 0.8519 | 0.7983 | 0.7466 | 0.7004
101 kPa, x1 = 0.5946 | 0.8754 | 0.8183 | 0.7639 | 0.715
101 kPa, x1 = 0.6933 | 0.9012 | 0.8399 | 0.7821 | 0.7319
101 kPa, x1 = 0.7944 | 0.9299 | 0.8693 | 0.8076 | 0.7519
101 kPa, x1 = 0.8972 | 0.9672 | 0.8983 | 0.834 | 0.7759
101.3 kPa, x1 = 0.0479 | – | 0.708 | – | –
101.3 kPa, x1 = 0.2944 | – | 0.726 | – | –
101.3 kPa, x1 = 0.3833 | – | 0.74 | – | –
101.3 kPa, x1 = 0.5479 | – | 0.776 | – | –
101.3 kPa, x1 = 0.6192 | – | 0.785 | – | –
101.3 kPa, x1 = 0.6717 | – | 0.797 | – | –
101.3 kPa, x1 = 0.9751 | – | 0.896 | – | –

CCC(N)(CO)CO + O
viscosity [mPa·s], 101.33 kPa
Settings | x1 = 0.0364 | x1 = 0.0916 | x1 = 0.185 | x1 = 0.261 | x1 = 0.377
303.15 K | 1.765 | 4.993 | 21.96 | 56.54 | 199.2
313.15 K | 1.356 | 3.435 | 12.89 | 30.13 | 85.62
323.15 K | 1.053 | 2.504 | 8.22 | 17.36 | 44.4

c1ccc2ccccc2c1 + CC(C)=O
viscosity [mPa·s], 101 kPa
Settings | 298.15 K | 303.15 K | 308.15 K | 313.15 K
x1 = 0.1688 | 0.487 | 0.464 | 0.4428 | 0.4207
x1 = 0.2356 | 0.5618 | 0.5296 | 0.5029 | 0.4781

CC(C)=O + CCCCO
Settings | viscosity [mPa·s]
298.15 K, 101 kPa, x1 = 0.12 | 1.65
298.15 K, 101 kPa, x1 = 0.24 | 1.164
298.15 K, 101 kPa, x1 = 0.35 | 0.8875
298.15 K, 101 kPa, x1 = 0.46 | 0.7108
298.15 K, 101 kPa, x1 = 0.56 | 0.5919
298.15 K, 101 kPa, x1 = 0.66 | 0.5089
298.15 K, 101 kPa, x1 = 0.75 | 0.4285
298.15 K, 101 kPa, x1 = 0.84 | 0.4014
298.15 K, 101 kPa, x1 = 0.92 | 0.3651
303.15 K, 101.33 kPa, x1 = 0.1152 | 1.535
303.15 K, 101.33 kPa, x1 = 0.2307 | 1.127
303.15 K, 101.33 kPa, x1 = 0.3341 | 0.879
303.15 K, 101.33 kPa, x1 = 0.4685 | 0.642
303.15 K, 101.33 kPa, x1 = 0.7032 | 0.427
303.15 K, 101.33 kPa, x1 = 0.7974 | 0.368
